Test results as given in patent publication US12366579B2, “Sulfur-heterocycle exchange chemistry and uses thereof” (University of Virginia Patent Foundation, priority 2019, dated 2025).

Columns and labels:
[1] = test system: HEK293T soluble proteomes; experiment: LC-MS chemical proteomics of probe-modified sites in cell proteomes; assay type: binding, human; settings: for tyrosine specificity, Y/K ratio of modified sites: LC-MS chemical proteomics, FIG. 4A
Procedure: (§1) Proteomes were diluted to 2.3 mg/mL in PBS and sample aliquots (432 μL) were treated with sulfonyl-triazole or -fluoride probes at the indicated concentrations (5 μL, 100× stock in DMSO), mixed gently and incubated for 1 h at room temperature. Probe-modified proteomes were subjected to CuAAC conjugation to desthiobiotin-PEG3-azide (10 μL of 10 mM stock in DMSO; final concentration of 200 μM) using TCEP (10 μL of fresh 50 mM stock in water; 1 mM final concentration), TBTA ligand (33 μL of a 1.7 mM 4:1 t-butanol/DMSO stock, 100 μM final concentration), and CuSO4 (10 μL of 50 mM stock, 1 mM final concentration). Samples were mixed by vortexing and then incubated for 1 h at room temperature. Excess reagents were removed by chloroform-methanol extraction as previously described^51. Protein pellets were re-suspended in 500 μL of 6M urea/25 mM ammonium bicarbonate followed by DTT reduction and IAA alkylation as previously described^5. Excess reagents were removed by chloroform/methanol extraction as described above, and the protein pellet was re-suspended in 500 μL of 25 mM ammonium bicarbonate and then digested to peptides using trypsin/Lys-C (7.5 μg in 15 μL of ammonium bicarbonate, sequencing grade from Promega, Madison, Wisconsin, United States of America) was added to the mixture and incubated for 3 hrs at 37° C. Probe-modified peptides were enriched by avidin affinity chromatography, eluted, and prepared for LC-MS analysis as previously described^51.
A top 10 data-dependent acquisition MS method was used.
Sulfonyl-probe modifications of tyrosine, lysine, and other amino acids were included as a variable (common) modification of +635.27374 Da. […] A Byonic score of 300 was applied for a more inclusive initial evaluation of the search results and thereby consider more possible probe-modified sites. MS1 and MS2 spectra corresponding to the highest-scoring tyrosine- and lysine (internal or non-C terminal)-modified sequences (˜50-100 peptides) were manually verified. […] Distinct peptides containing probe-modified amino acid residues (termed sites) were determined by identifying all unique razor protein and site combinations across all of the proteomes tested.
To compare amino acid residues modified by sulfonyl probes, protein and peptide identifications were accomplished as described above with variable (common) modification of +635.27374 Da on the following amino acid residues: cysteine, aspartic acid, glutamic acid, histidine, lysine, methionine, asparagine, glutamine, arginine, serine, threonine, tryptophan, and tyrosine. For these amino acid comparisons, carbamidomethylation (+57.021464 Da) of cysteines was searched as a variable/common modification to allow for the potential of probe modification on cysteines. Comparisons of probe-modified sites across all probes and cell lines tested were performed using the R package ggplot2 (online at tidyverse.org). Venn diagrams for comparisons were generated using the VennDiagram R package^52.
Proteomes were digested with trypsin protease and desthiobiotin-modified peptides enriched by avidin affinity chromatography, released, and analyzed by high-resolution liquid chromatography-mass spectrometry (LC-MS). Probe-modified peptide-spectrum matches (PSMs) that met a quality control confidence criteria of ≥300 Byonic score^31 and ≤5 ppm mass accuracy were selected for further manual evaluation.

[2] = test system: human cell proteomes (HEK293T, A549, DM93, H82, and Jurkat cells); experiment: LC-MS chemical proteomics of probe-modified tyrosine sites across 5 cell proteomes; assay type: binding; settings: HHS-465 and -475 together; 100 μM, 1 hr, 25° C.
Procedure: as §1, with “Probe-modified peptides were enriched by avidin affinity chromatography, eluted, and prepared for LC-MS analysis as previously described^51.” left out

[3] = test system: HEK293T, Jurkat cells; experiment: Live cell chemical proteomic profiling with SuTEx probes; assay type: cell-based, human; settings: 100 μM, 2 hr, 37° C.; membrane and soluble fractions; both probes
Procedure: Cells grown to ˜90% confluency in 10 cm plates were treated with DMSO vehicle or sulfonyl-triazole probe (10 μL of 1000×DMSO stock) in serum-free media for the indicated concentrations and times at 37° C. with 5% CO2. After treatment, cells were washed with cold PBS twice before harvesting and preparation for gel-based chemical proteomic evaluation as described above. For LC-MS studies, protein concentrations were normalized to 2.3 mg/mL and 432 μL (for 1 mg final protein amount) were used for sample preparation as detailed below.
Proteomes were diluted to 2.3 mg/mL in PBS and sample aliquots (432 μL) were treated with sulfonyl-triazole or -fluoride probes at the indicated concentrations (5 μL, 100× stock in DMSO), mixed gently and incubated for 1 h at room temperature. Probe-modified proteomes were subjected to CuAAC conjugation to desthiobiotin-PEG3-azide (10 μL of 10 mM stock in DMSO; final concentration of 200 μM) using TCEP (10 μL of fresh 50 mM stock in water; 1 mM final concentration), TBTA ligand (33 μL of a 1.7 mM 4:1 t-butanol/DMSO stock, 100 μM final concentration), and CuSO4 (10 μL of 50 mM stock, 1 mM final concentration). Samples were mixed by vortexing and then incubated for 1 h at room temperature. Excess reagents were removed by chloroform-methanol extraction as previously described^51. […]

[4] = HPLC assay, p-cresol reactivity against a sulfonyl probe mixture; assay type: physicochemical; settings: TMG 2.2 equivalents, 0° C.
Procedure: The following reagents were prepared and kept at 0° C. prior to use: 0.1 M solution of caffeine in acetonitrile (ACN), 1.0 M solution of n-butylamine, p-cresol, tetramethylguanidine (TMG), acetic acid in ACN, and 10 mM solution of the probes in a mixture of DMF-ACN (v/v=10:90) are made.
(i) p-Cresol reactivity against a probe mixture: A solution of p-cresol (16.5 μmol, 3.3 eq) was premixed with 1.1, 2.2, or 3.3 eq of TMG. To initiate the reaction, the p-cresol/TMG solution was added to a sulfonyl probe mixture of HHS-475/HHS-482/HHS-SF-1 (500 μL, 5 μmol, 1.0 eq each) and the reaction was kept at 0° C. The reaction progress was monitored by taking out a 50.0 μL aliquot of the reaction mixture at various time points followed by addition of a 10 μL quenching solution of acetic acid (0.5 M final, 5.0 μmol) and the internal caffeine standard (0.05 M final, 0.5 μmol). Sample (1.0 μL) was injected and analyzed by reverse-phase HPLC on a Shimadzu 1100 Series spectrometer (Shimadzu, Kyoto, Japan) with UV detection at 254 nm. Reaction progress was evaluated by monitoring consumption of sulfonyl probes because all probes generate a shared p-cresol and n-butylamine product. Chromatographic separation was performed using a Phenomenex Kinetex C18 column (2.6 μm, 50 mm×4.6 mm, Phemonenex, Torrance, California, United States of America). […]

Row | SMILES | tyrosine specificity, Y/K ratio of modified sites [1] | tyrosine sites identified in aggregate across 5 cell proteomes [2] | distinct tyrosine sites measured in live cell studies, in total per cell line [3] | fold reduction in total number of modified sites compared with HHS-465 and HHS-475 [1] | time to consumption of probe by p-cresol [4]
1 | C#CCNC(=O)c1ccc(S(=O)(=O)n2nccn2)cc1 [HHS-465, 4-((2H-1,2,3-Triazol-2-yl)sulfonyl)-N-(prop-2-yn-1-yl)benzamide] | 2.5 | ~8,000 sites | ~3,500 sites |  | 
2 | C#CCNC(=O)c1ccc(S(=O)(=O)F)cc1 [HHS-SF-1, 4-(Prop-2-yn-1-ylcarbamoyl)benzenesulfonyl fluoride, reference compound] | 2.3 |  |  | ~4 fold | > 90 min
